Patent US20260262643A1, “HERBICIDAL BENZOXAZINES” (FMC CORPORATION, priority 2022, published 2026)

Experiments:
barnyardgrass [1] = test: Test A preemergence; type: in vivo, Echinochloa crusgalli; conditions: visual injury after 10 days, 0 to 100 scale, 0 is no effect, 100 is complete control
Procedure, shortened: (§1)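 Loam/sand soil; pre-em directed soil spray at planting, post-em spray at 1–2 leaf (2–10 cm). Compound in non-phytotoxic solvent + surfactant. Greenhouse 10 d; visual injury vs untreated, 0 = no effect, 100 = complete control.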

blackgrass [2] = test: Test A preemergence; type: in vivo, Alopecurus myosuroides; conditions: 0 to 100 scale
Procedure, shortened: as §1

corn [3] = test: Test A preemergence; type: in vivo, Zea mays; conditions: 0 to 100 scale
Procedure, shortened: as §1

foxtail, giant [4] = test: Test A preemergence; type: in vivo, Setaria faberi; conditions: 0 to 100 scale
Procedure, shortened: as §1

kochia [5] = test: Test A preemergence; type: in vivo, Bassia scoparia; conditions: 0 to 100 scale
Procedure, shortened: as §1

oat, wild [6] = test: Test A preemergence; type: in vivo, Avena fatua; conditions: 0 to 100 scale
Procedure, shortened: as §1

pigweed, palmer [7] = test: Test A preemergence; type: in vivo, Amaranthus palmeri; conditions: 0 to 100 scale
Procedure, shortened: as §1

ragweed [8] = test: Test A preemergence; type: in vivo, Ambrosia artemisiifolia; conditions: 0 to 100 scale
Procedure, shortened: as §1

ryegrass, Italian [9] = test: Test A preemergence; type: in vivo, Lolium multiflorum; conditions: 0 to 100 scale
Procedure, shortened: as §1

soybean [10] = test: Test A preemergence; type: in vivo, Glycine max; conditions: 0 to 100 scale
Procedure, shortened: as §1

wheat [11] = test: Test A preemergence; type: in vivo, Triticum aestivum; conditions: 0 to 100 scale
Procedure, shortened: as §1

barnyardgrass [12] = test: Test A postemergence; type: in vivo, Echinochloa crusgalli; conditions: postemergence, 10 days; for Barnyardgrass plant response rating: 125 g ai/ha, 0 to 100 scale, 0 no effect, 100 complete control; for Plant response rating, Barnyardgrass: 500 g ai/ha, visual injury, 0 to 100 scale (0 no effect, 100 complete control)
Procedure, shortened: as §1

blackgrass [13] = test: Test A postemergence; type: in vivo, Alopecurus myosuroides; conditions: postemergence, 10 days; for Blackgrass plant response rating: 125 g ai/ha, 0 to 100 scale, 0 no effect, 100 complete control; for Plant response rating, Blackgrass: 500 g ai/ha, visual injury, 0 to 100 scale (0 no effect, 100 complete control)
Procedure, shortened: as §1

corn [14] = test: Test A postemergence; type: in vivo, Zea mays; conditions: postemergence, 10 days; for Corn plant response rating: 125 g ai/ha, 0 to 100 scale, 0 no effect, 100 complete control; for Plant response rating, Corn: 500 g ai/ha, visual injury, 0 to 100 scale (0 no effect, 100 complete control)
Procedure, shortened: as §1

foxtail, giant [15] = test: Test A postemergence; type: in vivo, Setaria faberi; conditions: postemergence, 10 days; for Foxtail, Giant plant response rating: 125 g ai/ha, 0 to 100 scale, 0 no effect, 100 complete control; for Plant response rating, Foxtail, Giant: 500 g ai/ha, visual injury, 0 to 100 scale (0 no effect, 100 complete control)
Procedure, shortened: as §1

kochia [16] = test: Test A postemergence; type: in vivo, Bassia scoparia; conditions: postemergence, 10 days; for Kochia plant response rating: 125 g ai/ha, 0 to 100 scale, 0 no effect, 100 complete control; for Plant response rating, Kochia: 500 g ai/ha, visual injury, 0 to 100 scale (0 no effect, 100 complete control)
Procedure, shortened: as §1

oat, wild [17] = test: Test A postemergence; type: in vivo, Avena fatua; conditions: postemergence, 10 days; for Oat, Wild plant response rating: 125 g ai/ha, 0 to 100 scale, 0 no effect, 100 complete control; for Plant response rating, Oat, Wild: 500 g ai/ha, visual injury, 0 to 100 scale (0 no effect, 100 complete control)
Procedure, shortened: as §1

pigweed, palmer [18] = test: Test A postemergence; type: in vivo, Amaranthus palmeri; conditions: postemergence, 10 days; for Pigweed, Palmer plant response rating: 125 g ai/ha, 0 to 100 scale, 0 no effect, 100 complete control; for Plant response rating, Pigweed, Palmer: 500 g ai/ha, visual injury, 0 to 100 scale (0 no effect, 100 complete control)
Procedure, shortened: as §1

ragweed [19] = test: Test A postemergence; type: in vivo, Ambrosia artemisiifolia; conditions: postemergence, 10 days; for Ragweed plant response rating: 125 g ai/ha, 0 to 100 scale, 0 no effect, 100 complete control; for Plant response rating, Ragweed: 500 g ai/ha, visual injury, 0 to 100 scale (0 no effect, 100 complete control)
Procedure, shortened: as §1

ryegrass, Italian [20] = test: Test A postemergence; type: in vivo, Lolium multiflorum; conditions: postemergence, 10 days; for Ryegrass, Italian plant response rating: 125 g ai/ha, 0 to 100 scale, 0 no effect, 100 complete control; for Plant response rating, Ryegrass, Italian: 500 g ai/ha, visual injury, 0 to 100 scale (0 no effect, 100 complete control)
Procedure, shortened: as §1

soybean [21] = test: Test A postemergence; type: in vivo, Glycine max; conditions: postemergence, 10 days; for Soybean plant response rating: 125 g ai/ha, 0 to 100 scale, 0 no effect, 100 complete control; for Plant response rating, Soybean: 500 g ai/ha, visual injury, 0 to 100 scale (0 no effect, 100 complete control)
Procedure, shortened: as §1

wheat [22] = test: Test A postemergence; type: in vivo, Triticum aestivum; conditions: postemergence, 10 days; for Wheat plant response rating: 125 g ai/ha, 0 to 100 scale, 0 no effect, 100 complete control; for Plant response rating, Wheat: 500 g ai/ha, visual injury, 0 to 100 scale (0 no effect, 100 complete control)
Procedure, shortened: as §1

galium = test: Test A postemergence; type: in vivo, Galium aparine; conditions: postemergence, 10 days; for Galium plant response rating: 125 g ai/ha, 0 to 100 scale, 0 no effect, 100 complete control; for Plant response rating, Galium: 500 g ai/ha, visual injury, 0 to 100 scale (0 no effect, 100 complete control)
Procedure, shortened: as §1

horseweed = test: Test A postemergence; type: in vivo, Erigeron canadensis; conditions: postemergence, 10 days; for Horseweed plant response rating: 125 g ai/ha, 0 to 100 scale, 0 no effect, 100 complete control; for Plant response rating, Horseweed: 500 g ai/ha, visual injury, 0 to 100 scale (0 no effect, 100 complete control)
Procedure, shortened: as §1

barnyardgrass [23] = test: Test B flooded paddy test; type: in vivo, Echinochloa crus-galli; conditions: 250 g ai/ha, Flood, 13 days, 0 to 100 scale (0 no effect, 100 complete control)
Procedure, shortened: (§2)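 Percent weed or crop control, judged by eye on a 0–100 scale 13 days post-treatment, reflects compound added to a 3 cm flood maintained over 2-leaf plants in the greenhouse. Missing entries are marked with a dash.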

ducksalad = test: Test B flooded paddy test; type: in vivo, Heteranthera limosa; conditions: 250 g ai/ha, Flood, 13 days, 0 to 100 scale (0 no effect, 100 complete control)
Procedure, shortened: as §2

rice = test: Test B flooded paddy test; type: in vivo, Oryza sativa; conditions: 250 g ai/ha, Flood, 13 days, 0 to 100 scale (0 no effect, 100 complete control)
Procedure, shortened: as §2

sedge, umbrella = test: Test B flooded paddy test; type: in vivo, Cyperus difformis; conditions: 250 g ai/ha, Flood, 13 days, 0 to 100 scale (0 no effect, 100 complete control)
Procedure, shortened: as §2

[24] = 500 g ai/ha, visual injury after 10 days, 0 is no effect, 100 is complete control

SMILES: CC(C)c1ncn(-c2ccc(C#N)c(C(=O)N3C[C@H](C)Oc4c(Cl)cccc43)c2)n1 [Compound 140]
- Plant response rating, Barnyardgrass (barnyardgrass [1]; 125 g ai/ha): 90
- Plant response rating, Barnyardgrass (barnyardgrass [1]; 500 g ai/ha): 90
- Plant response rating, Blackgrass (blackgrass [2]; 125 g ai/ha): 40
- Plant response rating, Blackgrass (blackgrass [2]; [24]): 70
- Plant response rating, Corn (corn [3]; 125 g ai/ha): 0
- Plant response rating, Corn (corn [3]; [24]): 10
- Plant response rating, Foxtail, Giant (foxtail, giant [4]; 125 g ai/ha): 90
- Plant response rating, Foxtail, Giant (foxtail, giant [4]; [24]): 100
- Plant response rating, Kochia (kochia [5]; 125 g ai/ha): 80
- Plant response rating, Kochia (kochia [5]; [24]): 90
- Plant response rating, Oat, Wild (oat, wild [6]; 125 g ai/ha): 30
- Plant response rating, Oat, Wild (oat, wild [6]; [24]): 70
- Plant response rating, Pigweed, Palmer (pigweed, palmer [7]; 125 g ai/ha): 100
- Plant response rating, Pigweed, Palmer (pigweed, palmer [7]; [24]): 100
- Plant response rating, Ragweed (ragweed [8]; 125 g ai/ha): 0
- Plant response rating, Ragweed (ragweed [8]; [24]): 30
- Plant response rating, Ryegrass, Italian (ryegrass, Italian [9]; 125 g ai/ha): 50
- Plant response rating, Ryegrass, Italian (ryegrass, Italian [9]; [24]): 70
- Plant response rating, Soybean (soybean [10]; 125 g ai/ha): 50
- Plant response rating, Soybean (soybean [10]; [24]): 100
- Plant response rating, Wheat (wheat [11]; 125 g ai/ha): 20
- Plant response rating, Wheat (wheat [11]; [24]): 50
- Barnyardgrass plant response rating (barnyardgrass [12]): 50
- Plant response rating, Barnyardgrass (barnyardgrass [12]): 70
- Blackgrass plant response rating (blackgrass [13]): 70
- Plant response rating, Blackgrass (blackgrass [13]): 80
- Corn plant response rating (corn [14]): 70
- Plant response rating, Corn (corn [14]): 90
- Foxtail, Giant plant response rating (foxtail, giant [15]): 90
- Plant response rating, Foxtail, Giant (foxtail, giant [15]): 90
- Kochia plant response rating (kochia [16]): 90
- Plant response rating, Kochia (kochia [16]): 90
- Oat, Wild plant response rating (oat, wild [17]): 0
- Plant response rating, Oat, Wild (oat, wild [17]): 50
- Pigweed, Palmer plant response rating (pigweed, palmer [18]): 70
- Plant response rating, Pigweed, Palmer (pigweed, palmer [18]): 90
- Ragweed plant response rating (ragweed [19]): 20
- Plant response rating, Ragweed (ragweed [19]): 40
- Ryegrass, Italian plant response rating (ryegrass, Italian [20]): 40
- Plant response rating, Ryegrass, Italian (ryegrass, Italian [20]): 50
- Soybean plant response rating (soybean [21]): 100
- Plant response rating, Soybean (soybean [21]): 100
- Wheat plant response rating (wheat [22]): 30
- Plant response rating, Wheat (wheat [22]): 60
- Galium plant response rating (galium): 70
- Plant response rating, Galium (galium): 70
- Horseweed plant response rating (horseweed): 0
- Plant response rating, Horseweed (horseweed): 0
- Plant response rating, Barnyardgrass (barnyardgrass [23]): 20
- Plant response rating, Ducksalad (ducksalad): 40
- Plant response rating, Rice (rice): 0
- Plant response rating, Sedge, Umbrella (sedge, umbrella): 75

SMILES: CC(C)c1ncn(-c2ccc(OCC(F)(F)F)c(C(=O)N3C[C@H](C)Oc4c(Cl)cccc43)c2)n1 [Compound 141]
- Plant response rating, Barnyardgrass (barnyardgrass [1]; 125 g ai/ha): 70
- Plant response rating, Barnyardgrass (barnyardgrass [1]; 500 g ai/ha): 90
- Plant response rating, Blackgrass (blackgrass [2]; 125 g ai/ha): 20
- Plant response rating, Blackgrass (blackgrass [2]; [24]): 70
- Plant response rating, Corn (corn [3]; 125 g ai/ha): 10
- Plant response rating, Corn (corn [3]; [24]): 10
- Plant response rating, Foxtail, Giant (foxtail, giant [4]; 125 g ai/ha): 90
- Plant response rating, Foxtail, Giant (foxtail, giant [4]; [24]): 100
- Plant response rating, Kochia (kochia [5]; 125 g ai/ha): 0
- Plant response rating, Kochia (kochia [5]; [24]): 50
- Plant response rating, Oat, Wild (oat, wild [6]; 125 g ai/ha): 60
- Plant response rating, Oat, Wild (oat, wild [6]; [24]): 80
- Plant response rating, Pigweed, Palmer (pigweed, palmer [7]; 125 g ai/ha): 100
- Plant response rating, Pigweed, Palmer (pigweed, palmer [7]; [24]): 100
- Plant response rating, Ragweed (ragweed [8]; 125 g ai/ha): 0
- Plant response rating, Ragweed (ragweed [8]; [24]): 50
- Plant response rating, Ryegrass, Italian (ryegrass, Italian [9]; 125 g ai/ha): 90
- Plant response rating, Ryegrass, Italian (ryegrass, Italian [9]; [24]): 100
- Plant response rating, Soybean (soybean [10]; 125 g ai/ha): 80
- Plant response rating, Soybean (soybean [10]; [24]): 80
- Plant response rating, Wheat (wheat [11]; 125 g ai/ha): 20
- Plant response rating, Wheat (wheat [11]; [24]): 30
- Barnyardgrass plant response rating (barnyardgrass [12]): 30
- Plant response rating, Barnyardgrass (barnyardgrass [12]): 70
- Blackgrass plant response rating (blackgrass [13]): 30
- Plant response rating, Blackgrass (blackgrass [13]): 80
- Corn plant response rating (corn [14]): 90
- Plant response rating, Corn (corn [14]): 90
- Foxtail, Giant plant response rating (foxtail, giant [15]): 60
- Plant response rating, Foxtail, Giant (foxtail, giant [15]): 100
- Kochia plant response rating (kochia [16]): 80
- Plant response rating, Kochia (kochia [16]): 90
- Oat, Wild plant response rating (oat, wild [17]): 10
- Plant response rating, Oat, Wild (oat, wild [17]): 20
- Pigweed, Palmer plant response rating (pigweed, palmer [18]): 70
- Plant response rating, Pigweed, Palmer (pigweed, palmer [18]): 100
- Ragweed plant response rating (ragweed [19]): 30
- Plant response rating, Ragweed (ragweed [19]): 60
- Ryegrass, Italian plant response rating (ryegrass, Italian [20]): 30
- Plant response rating, Ryegrass, Italian (ryegrass, Italian [20]): 90
- Soybean plant response rating (soybean [21]): 100
- Plant response rating, Soybean (soybean [21]): 100
- Wheat plant response rating (wheat [22]): 10
- Plant response rating, Wheat (wheat [22]): 20
- Galium plant response rating (galium): 80
- Plant response rating, Galium (galium): 100
- Horseweed plant response rating (horseweed): 0
- Plant response rating, Horseweed (horseweed): 0
- Plant response rating, Barnyardgrass (barnyardgrass [23]): 25
- Plant response rating, Ducksalad (ducksalad): 30
- Plant response rating, Rice (rice): 10
- Plant response rating, Sedge, Umbrella (sedge, umbrella): 95
